Measured values published in US10195170B2, “Methods for inhibiting expression of ASC, expression of NLRP3, and/or formation of NLRP3 inflammasome complex using diacerein or its analogs” (TWi Biotechnology, Inc., priority 2015, dated 2019).

Legend:
ASC = test: Immunofluorescence staining (fluorescence confocal assay) of ASC in MSU-stimulated THP-1 cells; assay type: cell-based, human; conditions: PMA-primed THP-1 cells, then 100 μg/mL MSU for 6 hours
Description: (§1) The 20 mg of rhein powder was dissolved in 1 mL 100% dimethyl sulfoxide (DMSO), sterilized by 0.22 μm pore filter membranes, and stored at −20° C. before use. The monosodium urate (MSU) crystal (10 mg/mL) was prepared in sterilized phosphate buffered saline (PBS). The adenosine […] disodium salt (ATP) was dissolved in ddH2O and sterilized by 0.22 μm pore filter membranes. THP-1, human acute monocytic leukemia cell line (ATCC® TIB-202), were suspended in RPMI-1640 medium (GIBCO, Life Technologies, Grand Island, USA) supplemented with 10% fetal bovine serum and 1% of antibiotics (penicillin-streptomycin-amphotericin B) conditioned media. For macrophage-like differentiation, THP-1 cells were primed by 0.1 μM phorbol myristyl acetate (PMA) for 24 hours. […] For cell viability, PMA-primed THP-1 cells were detected in the presence or absence of rhein incubation for 24 hours by the Cell Counting Kit-8 (CCK-8 assay, Sigma-Aldrich, St Louis, USA). […] Fluorescence confocal assay was performed to detect the human ASC and NLRP3 expression in paraformaldehyde-fixed THP-1 cells after treatment. […] The stained areas of ASC (green) and NLRP3 (red) staining distributions were quantified and analyzed by Metamorph analyzer. […] P-value was determined by the two-tailed unpaired t-test.

NLRP3 = test: Immunofluorescence staining (fluorescence confocal assay) of NLRP3 in MSU-stimulated THP-1 cells; assay type: cell-based, human; conditions: PMA-primed THP-1 cells, then 100 μg/mL MSU for 6 hours
Description: as §1

O=C(O)c1cc(O)c2c(c1)C(=O)c1cccc(O)c1C2=O [rhein, 9, 10-dihydro-4,5-dihydroxy-9, 10-dioxo-2-anthracene carboxylic acid]
decrease of staining of ASC sections, average intensity of area/cell (ASC; rhein 5 μg/mL overnight (lower dose), P=0.0011): about 64.0%
decrease of staining of ASC sections, average intensity of area/cell (ASC; rhein 10 μg/mL overnight (higher dose), P=0.0022): ~79.0%
inhibition of NLRP3 levels, average intensity of area/cell (NLRP3; rhein 5 μg/mL overnight (lower dose), P=0.014): about 62.5%
inhibition of NLRP3 levels, average intensity of area/cell (NLRP3; rhein 10 μg/mL overnight (higher dose), P=0.0012): ~84.1%
